Data from patent US7998989B2, “2-Imino-1,3-thiazoline-based compounds and T-type calcium channel inhibitors containing the same” (Korea Institute of Science and Technology, priority 2007, dated 2011).
Where two headings read alike, the source gives them in different places.

How the values were obtained:
[1] = biological target: T1, α1G T-type calcium channel (Homo sapiens, UniProt O43497); experiment: Assay for % inhibiting activity against T-type calcium channel using FDSS6000 (fluo-3 calcium imaging, KCl activation); type: cell-based
T1 construct: host or cells: HEK293
T1 sequence (O43497 whole entry): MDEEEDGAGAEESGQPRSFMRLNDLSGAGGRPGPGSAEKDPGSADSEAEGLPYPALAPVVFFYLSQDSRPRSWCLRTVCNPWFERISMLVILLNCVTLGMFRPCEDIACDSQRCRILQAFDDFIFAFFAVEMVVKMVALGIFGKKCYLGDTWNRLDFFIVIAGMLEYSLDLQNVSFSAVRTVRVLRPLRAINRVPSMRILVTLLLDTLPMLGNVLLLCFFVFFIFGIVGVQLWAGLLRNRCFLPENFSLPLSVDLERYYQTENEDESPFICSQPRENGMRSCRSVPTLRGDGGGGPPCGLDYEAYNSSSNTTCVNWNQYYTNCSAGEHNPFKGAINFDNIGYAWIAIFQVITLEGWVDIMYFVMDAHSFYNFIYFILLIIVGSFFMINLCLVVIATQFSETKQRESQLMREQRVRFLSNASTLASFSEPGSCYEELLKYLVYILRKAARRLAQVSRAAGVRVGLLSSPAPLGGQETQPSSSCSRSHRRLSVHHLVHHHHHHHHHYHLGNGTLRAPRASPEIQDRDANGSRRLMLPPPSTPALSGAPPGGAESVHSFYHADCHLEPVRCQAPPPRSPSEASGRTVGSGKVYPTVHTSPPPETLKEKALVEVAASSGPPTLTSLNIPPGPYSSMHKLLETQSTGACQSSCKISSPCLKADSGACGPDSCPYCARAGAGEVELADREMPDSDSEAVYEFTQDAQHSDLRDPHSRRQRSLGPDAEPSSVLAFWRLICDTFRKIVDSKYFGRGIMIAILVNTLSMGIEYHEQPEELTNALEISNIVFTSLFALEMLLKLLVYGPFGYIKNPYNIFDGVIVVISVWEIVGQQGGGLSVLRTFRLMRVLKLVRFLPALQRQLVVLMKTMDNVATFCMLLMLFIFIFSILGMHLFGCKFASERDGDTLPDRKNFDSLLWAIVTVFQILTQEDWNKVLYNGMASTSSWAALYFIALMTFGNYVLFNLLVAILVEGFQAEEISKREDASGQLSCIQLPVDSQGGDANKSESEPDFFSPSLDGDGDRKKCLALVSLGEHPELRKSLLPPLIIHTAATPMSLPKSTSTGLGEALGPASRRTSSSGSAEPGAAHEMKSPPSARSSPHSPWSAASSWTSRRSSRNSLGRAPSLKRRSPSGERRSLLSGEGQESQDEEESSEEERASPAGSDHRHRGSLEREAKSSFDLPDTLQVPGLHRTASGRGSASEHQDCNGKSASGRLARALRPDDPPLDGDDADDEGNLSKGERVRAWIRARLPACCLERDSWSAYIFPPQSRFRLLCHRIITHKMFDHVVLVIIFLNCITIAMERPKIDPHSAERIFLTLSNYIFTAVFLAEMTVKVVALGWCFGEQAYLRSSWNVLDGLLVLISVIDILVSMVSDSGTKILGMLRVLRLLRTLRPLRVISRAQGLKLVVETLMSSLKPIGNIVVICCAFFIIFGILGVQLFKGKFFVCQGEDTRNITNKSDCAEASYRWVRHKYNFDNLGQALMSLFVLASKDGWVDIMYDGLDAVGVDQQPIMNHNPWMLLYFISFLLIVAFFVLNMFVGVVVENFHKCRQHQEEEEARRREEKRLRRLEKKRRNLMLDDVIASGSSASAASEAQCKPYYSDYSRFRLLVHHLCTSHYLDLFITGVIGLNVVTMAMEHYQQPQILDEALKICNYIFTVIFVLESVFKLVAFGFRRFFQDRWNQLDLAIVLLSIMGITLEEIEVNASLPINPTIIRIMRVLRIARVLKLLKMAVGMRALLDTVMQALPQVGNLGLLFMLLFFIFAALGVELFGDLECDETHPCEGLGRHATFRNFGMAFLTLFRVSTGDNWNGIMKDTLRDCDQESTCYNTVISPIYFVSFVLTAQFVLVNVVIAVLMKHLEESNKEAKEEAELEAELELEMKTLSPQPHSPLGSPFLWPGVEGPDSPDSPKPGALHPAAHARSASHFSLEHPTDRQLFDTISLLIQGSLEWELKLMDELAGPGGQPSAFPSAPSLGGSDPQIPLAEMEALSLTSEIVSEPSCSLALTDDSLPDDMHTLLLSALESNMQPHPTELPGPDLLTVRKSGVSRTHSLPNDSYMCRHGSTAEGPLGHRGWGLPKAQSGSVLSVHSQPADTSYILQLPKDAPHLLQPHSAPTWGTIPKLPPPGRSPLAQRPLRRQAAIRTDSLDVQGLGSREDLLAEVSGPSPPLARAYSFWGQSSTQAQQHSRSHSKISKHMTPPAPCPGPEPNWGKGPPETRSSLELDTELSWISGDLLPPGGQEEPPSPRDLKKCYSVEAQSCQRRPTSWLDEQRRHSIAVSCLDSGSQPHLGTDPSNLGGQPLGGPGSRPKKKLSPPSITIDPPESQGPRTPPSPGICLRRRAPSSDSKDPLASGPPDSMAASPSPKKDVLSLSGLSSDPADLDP
In short: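 Percent inhibition derived from […] area against untreated control (100%), after 75 s compound pre-exposure and 75 mM KCl activation. Cells: HEK293 with stable α1G plus Kir2.1, fluo-3/AM-labelled (5 μM), assayed in pH 7.4 HEPES containing 10 mM CaCl2.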

[2] = biological target: T1, α1G T-type calcium channel; experiment: Electrophysiological whole cell patch clamp measurement of T-type calcium channel current in HEK293 cells; type: cell-based; details: HEK293 cells expressing α1G; for HEK293cell (% Inhibition) 10 μM: inhibition of peak current; for IC50: read-out: IC50 (a1G)
Description: In the present invention, in order to examine an efficient inhibitor against the T-type calcium channel, a primary assay for T-type calcium channel inhibiting activity was conducted by a high-efficient assay using FDSS6000, wherein mammal HEK293 cell lines (originated from human kidney carcinoma cells) that specifically express α1G of the T-type calcium channel was used for primary assay. Through the primary assay, compounds that show meaningful inhibition effects were selected. The selected compounds were used in a second assay for T-type calcium channel inhibiting activity using an electrophysiological whole cell patch clamp method, wherein mammal HEK293 cell lines (originated from human kidney carcinoma cells) that specifically express α1G of the T-type calcium channel was used for the second assay. Mibefradil, which had been developed as a T-type calcium channel inhibitor, was used as a reference.
10% Fetal bovine serum (FBS) and 1% penicillin/streptomycin (v/v) were added to Dulbecco's modified Eagle's medium (DMEM), to be used as a media solution. The cells were cultured in an incubator under a wet condition of 95% air/5% CO2 and a temperature of 36.5° C. The media solution was refreshed every 3 or 4 days, and the cells were sub-cultured every week. Only the cells that expressed α1G T-type calcium channel were cultured using a G-418 (0.5 mg/ml) solution. The recording of the cells used in the T-type calcium channel activity analysis was conducted at 2-7 days after the cells were culturing on a cover slip coated with poly-L-lysine (0.5 mg/ml) when conducting every sub-culture. For analysis at a single cell level, the T-type calcium channel current was measured by an electrophysiological whole cell patch clamp method using EPC-9 amplifier (HEKA, German).
As solutions for analyzing T-type calcium channel activity, a solution including NaCl 140 mM, CaCl2 2 mM, and HEPES10 mM (pH 7.4, Sigma; 4-(2-hydroxyethyl)piperazine-1-ethanesulfonic acid) was used as an extracellular solution, and a solution including KCl 130 mM, HEPES 10 mM (Sigma), EGTA 11 mM (ethylene glycol-bis(2-aminoethylether)-N,N,N′,N′-tetraacetic acid, Sigma), and MgATP 5 mM (pH 7.4, Sigma) was used as an intracellular solution. The protocol for T-type calcium channel activity that is activated at low voltage is as follows. A micro-glass electrode with resistance of 3-4 MΩ wherein the above-prepared intracellular solution was filled was pricked into a single cell, to make a whole-cell recording mode. Thereafter, the cell membrane potential was fixed to −100 mV, and then the inward current due to the T-type calcium channel activity when hypopolarizing to −30 mV (50 ms duration) was measured every 10 seconds.
Each compound to be tested was dissolved in 100% dimethylsulfoxide (DMSO) to make a 10 mM stock solution. The effect of the compound on the T-type calcium channel current compound was initially examined in the stock solution with the 1000-times diluted concentration of 10 μM (containing 0.1% DMSO) and then examined in the solution with the concentration for IC50 measurement (mostly 0.1 to 100 μM), to obtain an IC50 value. More specifically, the cells were treated in each compound together with the extracellular solution for 30 to 60 seconds, and the inhibition level of peak current induced by the compound was calculated as a percentage, to obtain the % inhibition value as shown in Table 4.

[3] = 10 μM, HEK293 cells stably expressing α1G T-type calcium channel and Kir2.1, compounds of the examples

Molecule | FDSS (% inhibition)/10uM [1, 3] [%] | HEK293cell (% Inhibition) 10 μM [2] [%] | IC50 [2] [nM] | inhibition at 10 µM ([1]; HEK293, 10 μM, HEK293 cells stably expressing α1G T-type calcium channel and Kir2.1, compounds of the examples, read-out: FDSS (% inhibition)/10uM) [%] | melting point [°C] | inhibition at 10 µM ([1]; 10 μM, FDSS (% inhibition), comparative compounds where R6 is a phenyl group, read-out: FDSS) [%]
CN1C(=NC2CCCCCC2)SCC1CC(=O)Nc1cc(Cl)cc(Cl)c1.Cl (stereo not shown) [KHG24125, (2-cycloheptylimino-3-methyl-1,3-thiazolidine-4-yl)-N-(3,5- ? chlorophenyl)-acetamide hydrochloride] | 71.79 | 95.6 ± 1.2 | 80 ± 10 | – | – | –
CN1C(=NC2C3CC4CC(C3)CC2C4)SCC1CC(=O)Nc1ccc(F)cc1.Cl (stereo not shown) [KHG24842, [2-(2-adamantylimino)-3-methyl-1,3-thiazolidine-4-yl]-N-(4-fluorophenyl)-acetamide hydrochloride] | – | – | – | 59.8 | 154 | –
CN1C(=Nc2cccc(F)c2)SCC1CC(=O)Nc1ccc(Cl)cc1F.Cl (stereo not shown) [KHG32076, [2-(3-fluorophenylimino)-3-methyl-1,3-thiazolidine-4-yl]-N-(4-chloro-2-fluorophenyl)-acetamide hydrochloride] | – | – | – | – | 229 to 231 | 20.5
(2-cycloheptylimino-3-methyl-1,3-thiazolidine-4-yl)-N-(2,4-difluorophenyl)-acetamide hydrochloride [KHG24127] | 49.69 | 80.8 ± 0.6 | 2660 ± 330 | – | – | –
(2-cycloheptylimino-3-methyl-1,3-thiazolidine-4-yl)-N-(2-chloro-4-fluorophenyl)-acetamide hydrochloride [KHG24120] | 60.08 | 82.7 ± 0.9 | 2750 ± 250 | – | – | –
(2-cycloheptylimino-3-methyl-1,3-thiazolidine-4-yl)-N-(2-fluoro-4-methylphenyl)-acetamide hydrochloride [KHG24126] | 53.79 | 87.7 ± 0.6 | 1200 ± 80 | – | – | –
(2-cycloheptylimino-3-methyl-1,3-thiazolidine-4-yl)-N-(2-fluoro-5-nitrophenyl)-acetamide hydrochloride [KHG24129] | 61.39 | 90.0 ± 0.4 | 1570 ± 110 | – | – | –
(2-cycloheptylimino-3-methyl-1,3-thiazolidine-4-yl)-N-(4-bromophenyl)-acetamide hydrochloride [KHG24122] | 71.12 | 94.6 ± 0.5 | 390 ± 30 | – | – | –
(2-cycloheptylimino-3-methyl-1,3-thiazolidine-4-yl)-N-(4-chloro-2-fluorophenyl)-acetamide hydrochloride [KHG24130] | 70.4 | 90.0 ± 0.9 | 810 ± 80 | – | – | –
(2-cycloheptylimino-3-methyl-1,3-thiazolidine-4-yl)-N-(4-chlorobenzyl)-acetamide hydrochloride [KHG24160] | 61.93 | 92.9 ± 0.7 | 1330 ± 30 | – | – | –
(2-cycloheptylimino-3-methyl-1,3-thiazolidine-4-yl)-N-(4-chlorophenyl)-acetamide hydrochloride [KHG24131] | 72.86 | 86.8 ± 0.3 | 520 ± 20 | – | – | –
(2-cycloheptylimino-3-methyl-1,3-thiazolidine-4-yl)-N-(4-cyanomethylphenyl)-acetamide hydrochloride [KHG24121] | 41.02 | 58.1 ± 4.9 | 8530 ± 1720 | – | – | –
(2-cycloheptylimino-3-methyl-1,3-thiazolidine-4-yl)-N-(4-ethylphenyl)-acetamide hydrochloride [KHG24117] | 67.09 | 93.0 ± 2.5 | 570 ± 70 | – | – | –
(2-cycloheptylimino-3-methyl-1,3-thiazolidine-4-yl)-N-(4-fluorobenzyl)-acetamide hydrochloride [KHG24159] | 48.52 | 76.8 ± 1.4 | 3570 ± 290 | – | – | –
(2-cycloheptylimino-3-methyl-1,3-thiazolidine-4-yl)-N-(4-fluorophenyl)-acetamide hydrochloride [KHG24118] | 66 | 80.3 ± 1.1 | 1880 ± 220 | – | – | –
(2-cycloheptylimino-3-methyl-1,3-thiazolidine-4-yl)-N-(4-isopropylphenyl)-acetamide hydrochloride [KHG24133] | 69.18 | 96.0 ± 1.9 | 420 ± 10 | – | – | –
(2-cycloheptylimino-3-methyl-1,3-thiazolidine-4-yl)-N-(4-methoxybenzyl)-acetamide hydrochloride [KHG24161] | 31.29 | 81.2 ± 1.3 | 1670 ± 510 | – | – | –
(2-cycloheptylimino-3-methyl-1,3-thiazolidine-4-yl)-N-(4-methoxyphenyl)-acetamide hydrochloride [KHG24119] | 52.85 | 72.9 ± 1.0 | 4440 ± 280 | – | – | –
(2-cycloheptylimino-3-methyl-1,3-thiazolidine-4-yl)-N-(4-methyl-2-chlorophenyl)-acetamide hydrochloride [KHG24124] | 59.49 | 87.1 ± 1.2 | 1770 ± 100 | – | – | –
(2-cycloheptylimino-3-methyl-1,3-thiazolidine-4-yl)-N-(4-n-butylphenyl)-acetamide hydrochloride [KHG24134] | 75.92 | 95.1 ± 2.0 | 340 ± 30 | – | – | –
(2-cycloheptylimino-3-methyl-1,3-thiazolidine-4-yl)-N-(4-phenoxyphenyl)-acetamide hydrochloride [KHG24123] | 76.6 | 94.2 ± 2.0 | 1090 ± 200 | – | – | –
(2-cycloheptylimino-3-methyl-1,3-thiazolidine-4-yl)-N-(5-chloro-2-fluorophenyl)-acetamide hydrochloride [KHG24128] | 62.56 | 88.1 ± 1.9 | 550 ± 10 | – | – | –
(2-cycloheptylimino-3-methyl-1,3-thiazolidine-4-yl)-N-phenyl-acetamide hydrochloride [KHG24132] | 50.94 | 76.8 ± 1.0 | 5000 ± 1970 | – | – | –
(2-cyclohexylimino-3-methyl-1,3-thiazolidine-4-yl)-N-(2-fluoro-5-nitrophenyl)-acetamide hydrochloride [KHG23360] | 66.64 | 87.8 ± 2.2 | 780 ± 80 | – | – | –
(2-cyclohexylimino-3-methyl-1,3-thiazolidine-4-yl)-N-(2-trifluoromethylphenyl)-acetamide hydrochloride [KHG24083] | 47.92 | 76.5 ± 2.3 | 3630 ± 540 | – | – | –
(2-cyclohexylimino-3-methyl-1,3-thiazolidine-4-yl)-N-(3,5-dichlorophenyl)-acetamide hydrochloride [KHG23356] | 60.46 | 97.0 ± 0.7 | 230 ± 10 | – | – | –
(2-cyclohexylimino-3-methyl-1,3-thiazolidine-4-yl)-N-(3,5-ditrifluoromethylphenyl)-acetamide hydrochloride [KHG24075] | 73.72 | 94.1 ± 1.5 | 320 ± 20 | – | – | –
